The results in this text go back to PMC10751773 (JACS Au, 2023).

The target of one test is piscidin 3 (P3) (Morone chrysops x Morone saxatilis, UniProt P0C006). Kind of test: circular dichroism titration at […] nm, one-site two-state fit. The format is binding.
The next test concerns the target piscidin 1 (P1) (Morone saxatilis, UniProt Q8UUG0). The test is described as above. The format is binding.

piscidin 1 (P1), sequence (Q8UUG0 23-44): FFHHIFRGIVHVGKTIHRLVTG
piscidin 3 (P3), sequence (P0C006 whole entry): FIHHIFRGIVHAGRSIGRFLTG

For orientation: Kd means the constant that tells how readily two partners part at equilibrium. Read a low Kd as a tighter complex. Consider `CCCCCCOC(=O)CCCCCCC/C=C\CCCCCC[C@H](C)O[C@@H]1O[C@H](CO)[C@@H](O)[C@H](O)[C@H]1O[C@@H]1O[C@H](CO)[C@@H](O)[C@H](O)[C@H]1O` [SL-HE], for which the Kd on piscidin 3 (P3) turned out to be 391.5 ± 1.5 µM; on piscidin 1 (P1), 206 ± 5 µM.
